Measurements taken from PMC13429874, “ABHD2 activity is not required for the non-genomic action of progesterone on human sperm” (Human Reproduction (Oxford, England), 2026).

Assays:
Type in all cases: biochemical
[1] = target: T1, full-length human ABHD2 (ABHD2^FL) (Homo sapiens, UniProt P08910); experiment: ABHD2^FL enzymatic activity assay with 7-HCA substrate; details: Supplementary Table S2; read-out: IC50 measured in ABHD2^FL in the 7-HCA Assay
T1 construct: TEV site-eGFP-8xHis (C, cleaved yes); made in house; host or cells: SF9 insect cells (baculovirus)
T1 sequence (P08910 1-425): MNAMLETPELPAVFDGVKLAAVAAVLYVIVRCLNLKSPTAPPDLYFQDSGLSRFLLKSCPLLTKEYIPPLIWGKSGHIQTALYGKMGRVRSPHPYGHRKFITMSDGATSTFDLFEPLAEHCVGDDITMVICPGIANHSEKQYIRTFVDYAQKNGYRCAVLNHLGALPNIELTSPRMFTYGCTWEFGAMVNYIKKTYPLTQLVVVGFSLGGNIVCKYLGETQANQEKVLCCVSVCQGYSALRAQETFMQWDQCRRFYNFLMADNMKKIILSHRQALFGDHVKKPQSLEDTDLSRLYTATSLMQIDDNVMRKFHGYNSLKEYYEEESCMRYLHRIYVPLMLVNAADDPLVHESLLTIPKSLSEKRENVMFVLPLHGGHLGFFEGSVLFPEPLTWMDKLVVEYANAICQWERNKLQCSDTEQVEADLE

ABHD2^L33–E425 = target: T2, ABHD2^L33–E425 (Homo sapiens, UniProt P08910); experiment: ABHD2^L33-E425 fluorometric enzymatic activity assay with 7-HCA substrate; details: 10 nM enzyme, 10 µM 7-HCA; read-out: IC50 for ABHD2^L33-425, fluorometric assay using 7-HCA
T2 construct: expression for ABHD2 amino acids L33–E425, in which a predicted transmembrane domain (amino acids 1–32) is removed; His6-FLAG (N); made in house; host or cells: E. coli BL21(DE3)-R3-pRARE2
T2 sequence (P08910 33-425): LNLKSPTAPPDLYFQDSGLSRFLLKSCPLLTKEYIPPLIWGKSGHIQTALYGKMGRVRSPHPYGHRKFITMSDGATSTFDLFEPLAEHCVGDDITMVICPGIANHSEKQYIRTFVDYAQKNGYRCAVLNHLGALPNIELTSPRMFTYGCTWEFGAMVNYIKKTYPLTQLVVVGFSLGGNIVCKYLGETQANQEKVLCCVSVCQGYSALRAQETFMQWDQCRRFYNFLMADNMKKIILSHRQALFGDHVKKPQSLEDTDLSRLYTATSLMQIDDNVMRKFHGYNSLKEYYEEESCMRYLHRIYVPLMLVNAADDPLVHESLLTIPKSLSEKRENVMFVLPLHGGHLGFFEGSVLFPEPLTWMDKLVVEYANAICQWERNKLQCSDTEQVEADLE

human ABHD10 = target: T3, human ABHD10 (Homo sapiens, UniProt Q9NUJ1); experiment: ABHD10 colorimetric assay with p-nitrophenyl butyrate; details: 10 µM compound, 500 µM p-NPB
T3 construct: Constructs encoding amino acids T53—N306 of human ABHD10; His6-TEV site (N); made in house; host or cells: E. coli
T3 sequence (Q9NUJ1 53-306): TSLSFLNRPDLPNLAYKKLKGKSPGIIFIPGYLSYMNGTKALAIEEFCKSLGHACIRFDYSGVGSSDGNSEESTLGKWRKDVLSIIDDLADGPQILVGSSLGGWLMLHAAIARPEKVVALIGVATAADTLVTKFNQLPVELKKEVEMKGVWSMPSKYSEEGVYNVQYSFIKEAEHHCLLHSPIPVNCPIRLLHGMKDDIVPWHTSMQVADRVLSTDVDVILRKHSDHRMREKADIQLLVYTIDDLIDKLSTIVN
Method: (§1) Enzymatic activities of ABHD10 and ABHD11 were measured in a colorimetric assay using p-nitrophenyl butyrate (p-NPB) as substrate. Enzymes at 1500 nM ABHD10 and 125 nM ABHD11 in 20 mM HEPES pH 7.5, 150 mM NaCl, and 2% (v/v) DMSO were pre-incubated in 96-well plates with 50 µM test compound for 30 min at 4°C. Plates were then equilibrated at 37°C for 2 min, and reactions were initiated by adding 160 µl of pre-warmed substrate solution (same buffer with 625 µM p-NPB) to a total volume of 200 µl, yielding final assay concentrations of 300 nM ABHD10, 25 nM ABHD11, and 500 µM pNPB. The substrate solution was prepared immediately before addition to the enzyme mixtures. Absorbance at 405 nm was recorded on a SpectraMax iD3 plate reader (Molecular Devices) for 20 min with continuous monitoring at 30 s intervals.

human ABHD11 = target: T4, human ABHD11 (Homo sapiens, UniProt Q8NFV4); experiment: ABHD11 colorimetric assay with p-nitrophenyl butyrate; details: 10 µM compound, 500 µM p-NPB
T4 construct: residues V34—V315 of human ABHD11; His6-TEV site (N); made in house; host or cells: E. coli
T4 sequence (Q8NFV4 25-306 limits assumed): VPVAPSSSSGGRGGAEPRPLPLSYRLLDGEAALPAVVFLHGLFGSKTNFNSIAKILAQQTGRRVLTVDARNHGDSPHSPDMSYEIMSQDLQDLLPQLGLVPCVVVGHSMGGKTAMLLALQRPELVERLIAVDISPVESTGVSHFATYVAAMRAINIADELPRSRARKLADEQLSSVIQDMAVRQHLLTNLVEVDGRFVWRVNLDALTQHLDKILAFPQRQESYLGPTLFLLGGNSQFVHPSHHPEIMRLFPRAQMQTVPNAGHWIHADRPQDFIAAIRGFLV
Method: as §1

IC50 [1]: 1.2 µM
IC50 (ABHD2^L33–E425): 0.36 µM
inhibition of ABHD10 (human ABHD10): no detectable inhibition
inhibition of ABHD11 (human ABHD11): no detectable inhibition
SMILES: CC1CCCN(C(=O)c2ccccc2C(=O)c2ccccc2)C1 (stereo not shown) [Compound 4]
